Results published in patent US8999419B2, “Enhancement of potato tuber sprouting inhibitors using various combinations of agents” (Washington State University, priority 2010, dated 2015).

Key:
'Ranger Russet' tubers [1] = assay: Days to average sprout length of 10 mm, 3-decen-2-one followed by CIPC; assay type: in vivo, potato
Procedure: The study used CIPC to extend the sprout-free period following an application of 3-decen-2-one or 2-decanone after sprouting occurs. Protocol.
(§1) This study, as described, used 3-decen-2-one (3D2). The study was duplicated as described with 2-decanone in place of 3D2. Tubers were stored at 9° C. until they emerged from dormancy (when 75% of the sample tubers are peeping, and the longest sprouts are no longer than 4 mm). At this time, 3-decen-2-one was applied at 0.75, 0.50, or 0.25 mmol/kg to ‘burn off’ growing sprouts. Each of these treatments was followed by applications of 1, 0.73, 0.47 or 0.20% a.i. of CIPC EC. The label rate of CIPC EC is 1% a.i. and results in a 10 mg/kg fresh wt application when applied as directed. Sprout measurements were obtained every two weeks. The length of the longest sprout on each tuber was recorded. The average length of the longest sprout was plotted over time for each treatment combination. The days to 10 mm were estimated from the second linear regression line of each element. Positive control treatments included the three rates of 3D2 alone and four post-sprouting concentrations of CIPC alone. The standard control treatment consisted of non-treated tubers.

[2] = test system: Russet Burbank potato tubers; assay: Sprout-free interval after CIPC and trans-2-nonenal, alone or in sequence; assay type: in vivo; conditions: CIPC 20 mg/kg; T2N 0.75 mmol/kg; applied at 151 DAH; tubers stored at 9° C.
Procedure: FIGS. 2A and B. Treatment with combination of T2N and CIPC. A, sprout growth in “Russet Burbank” tubers treated as indicated with CIPC, trans-2-nonenal, or trans-2-nonenal and CIPC in sequence; fresh weight of sprouts (g/tuber) at the indicated time points. CIPC, 20 mg/kg; T2N, 0.75 mmol/kg; B, photo of tubers.
Following the emergence of Russet Burbank potato tubers from dormancy, CIPC and trans-2-nonenal were applied either alone or sequentially as indicated in FIG. 2A. All treatments were applied at 151 days after harvest (DAH). Sprout control was considered to end when one third of the tubers in the sample produced a sprout mass of greater than 50 mg/tuber or when the mean of the total sample exceeded 1 g/tuber. When both CIPC and trans-2-nonenal were used, the sprout-free interval of the tubers stored at 9° C. […] In this study, the application of CIPC was unconventional in that it occurred when tubers were beginning to sprout, as opposed to the window between wound healing and sprouting. CIPC provided additional sprout control on tubers whose actively growing sprouts were initially terminated by trans-2-nonenal, i.e. when used in combination with trans-2-nonenal. Trans-2-nonenal thus expands the window of opportunity for application of CIPC and this invention can therefore be useful to reduce the application rate and residues of CIPC.

Russet Burbank tubers = assay: Sprout fresh weight after 24 h chamber treatment with 3N2 and 2-nonanone mixtures; assay type: in vivo, potato; conditions: treated 24 h, 21 days at 22° C.
Procedure: FIG. 1. Effects of 3-nonen-2-one (3N2) in various combinations with 2-nonanone on sprouting of Russet Burbank tubers. The compounds were applied as described in Example 1. Tubers were treated for 24 h, removed from treatment chambers, and placed at 22° C. to sprout for 3 weeks. Sprout fresh weight is expressed as a percentage of control (non-treated), which were 100% sprouted.
The objective of this study was to determine the efficacy of mixtures of 3N2 and its metabolite, 2-nonanone, on sprout inhibition. Potato tubers were treated for 24 h in a closed chamber. The chemicals were volatilized from filter paper inside the chamber. Treatment was with 0 to 0.75 mmol/kg of 3N2 combined factorially with 0 to 0.75 mmol/kg of 2-nonanone. The treated tubers were placed at 22° C. and sprout fresh weights were measured 21 days after treatment. Sprout growth from tubers treated with 0.5 and 0.75 mmol/kg 2-nonanone averaged 58% of non-treated tubers, compared with 9% for […] applied alone (FIG. 1).

'Ranger Russet' tubers [3] = assay: Days to average sprout length of 10 mm, 2-decanone followed by CIPC; assay type: in vivo, potato
Procedure: as §1

[4] = 116 mg kg-1 rate, no subsequent treatment with CIPC

Q: How did the “Control before sprouting re-occurred” value ('Ranger Russet' tubers [1]; 0.25 mmol/kg rate) turn out when `CCCCCCC=CC(C)=O` [3D2, 3-decen-2-one] was run?
A: approximately 1 month

Q: What about the “Days of control following application” value ('Ranger Russet' tubers [1]; [4]) of the same compound?
A: 58 days

Q: And the “Days to 10 mm Actual” value ('Ranger Russet' tubers [1]; 3D2 39 mg kg-1 fresh wt alone (CIPC 0))?
A: 38 days

Q: And the “Days to 10 mm Actual” value ('Ranger Russet' tubers [1]; 3D2 77 mg kg-1 fresh wt alone (CIPC 0))?
A: 40 days

Q: What about the “Days to 10 mm Actual” value ('Ranger Russet' tubers [1]; 3D2 116 mg kg-1 fresh wt alone (CIPC 0)) of the same compound?
A: 57 days

Q: Which Sprout-free interval [2] does the source give for `CCCCCC/C=C/C=O` [trans-2-nonenal] here?
A: 155 days

Q: For `CCCCCCCC(C)=O` [2-nonanone], which “Sprout growth (fresh weight) as percentage of non-treated tubers” value (Russet Burbank tubers; 0.5 and 0.75 mmol/kg 2-nonanone, averaged) is on record?
A: 58%

Q: Which results are given for `CCCCCCCCC(C)=O` [2-decanone]?
A: Control before sprouting re-occurred ('Ranger Russet' tubers [3]; 0.25 mmol/kg rate): approximately 1 month; Days of control following application ('Ranger Russet' tubers [3]; [4]): 50 days; Days to 10 mm Actual ('Ranger Russet' tubers [3]; 2-decanone 39 mg kg-1 fresh wt alone (CIPC 0)): 34 days; Days to 10 mm Actual ('Ranger Russet' tubers [3]; 2-decanone 77 mg kg-1 fresh wt alone (CIPC 0)): 42 days; Days to 10 mm Actual ('Ranger Russet' tubers [3]; 2-decanone 116 mg kg-1 fresh wt alone (CIPC 0)): 49 days

Q: How did the “Sprout growth (fresh weight) as percentage of non-treated tubers” value (Russet Burbank tubers; 0.75% 3N2 applied alone) turn out when `CCCCCC=CC(C)=O` [3N2, 3-nonen-2-one] was run?
A: 9%

Q: Which “Days to 10 mm Actual” value ('Ranger Russet' tubers [1]; CIPC 2.0 mg kg-1 fresh wt alone (3D2 0), Table 1 study) does the source give for `CC(C)OC(=O)Nc1cccc(Cl)c1` [CIPC, chlorpropham, reference compound] here?
A: 51 days

Q: And the “Days to 10 mm Actual” value ('Ranger Russet' tubers [1]; CIPC 4.7 mg kg-1 fresh wt alone (3D2 0), Table 1 study)?
A: 80 days

Q: What about the “Days to 10 mm Actual” value ('Ranger Russet' tubers [1]; CIPC 7.3 mg kg-1 fresh wt alone (3D2 0), Table 1 study) of the same compound?
A: 99 days

Q: And the “Days to 10 mm Actual” value ('Ranger Russet' tubers [1]; CIPC 10 mg kg-1 fresh wt alone (3D2 0), Table 1 study)?
A: 95 days

Q: And the Sprout-free interval [2]?
A: 124 days

Q: What about the “Days to 10 mm Actual” value ('Ranger Russet' tubers [3]; CIPC 2.0 mg kg-1 fresh wt alone (2-decanone 0), Table 2 study) of the same compound?
A: 85 days

Q: And the “Days to 10 mm Actual” value ('Ranger Russet' tubers [3]; CIPC 4.7 mg kg-1 fresh wt alone (2-decanone 0), Table 2 study)?
A: 113 days

Q: What about the “Days to 10 mm Actual” value ('Ranger Russet' tubers [3]; CIPC 7.3 mg kg-1 fresh wt alone (2-decanone 0), Table 2 study) of the same compound?
A: 110 days

Q: And the “Days to 10 mm Actual” value ('Ranger Russet' tubers [3]; CIPC 10 mg kg-1 fresh wt alone (2-decanone 0), Table 2 study)?
A: 112 days
